# From patent US12630580B2, “5′-O-phenylacetyluridine and therapeutic use” (PHARMA CINQ, LLC, priority 2020, dated 2026)
# Key:
# [1] = Plasma concentrations of uridine, PB and metabolites after oral administration (comparative bioavailability)
# Description: The delivery of phenylacetate into the bloodstream after oral administration of PAU was also assessed. Sodium phenylbutyrate is used in clinical practice as an ammonia scavenger in hepatic encephalopathy or genetic nitrogen cycle disorders, or as a chaperone or histone deacetylase inhibitor. It is predominantly metabolized to phenylacetate via beta-oxidation in the liver, and phenylacetate mediates the therapeutic benefits of phenylbutyrate. PAU was administered orally at a dose equimolar to 200 mg/kg sodium phenylbutyrate. Female BALB/c mice (n=3-5 group) were given test compounds p.o. and after 30 minutes were retro-orbitally bled to obtain plasma. […] An equimolar dose or uridine was used as a comparator for efficiency of delivery of uridine into the circulation by oral administration of PAU.
# TNFα = assay: LPS-induced elevation of plasma TNFα (inflammation model); type: in vivo; conditions: female BALB/c mice; for TNF α ± SEM: plasma one hour after LPS
# Description: Injection of bacterial cell wall constituent lipopolysaccharide (LPS) has been used as a model of inflammation. The inflammatory cascade can lead to cellular and organ damage when unchecked.
# Female BALB/c mice […] of age (n=7-8/group) were treated with Vehicle (0.75% HPMC) or PAU p.o. and 30 minutes later LPS (2.5 mg/kg i.p.) was administered. One hour after LPS, mice were sacrificed and blood was collected for measurement of plasma TNFα.
# [2] = female BALB/c mice, p.o., dose equimolar to 200 mg/kg sodium phenylbutyrate, plasma 30 minutes after dosing
Compound,"Elevation of plasma uridine and uracil compared with equimolar dose of oral uridine ([1]; oral, mice)","TNF α ± SEM (TNFα; PAU 165 mg/kg p.o. 30 minutes before LPS 2.5 mg/kg i.p., Vehicle 15,981 ± 2,951)","TNF α ± SEM (TNFα; PAU 331 mg/kg p.o. 30 minutes before LPS 2.5 mg/kg i.p., p < .05 compared to Vehicle (15,981 ± 2,951))",Anti-inflammatory effect in the LPS-induced elevation of plasma TNFα (TNFα; p.o.),"Plasma concentration of PA (phenylacetate) [1, 2] [µM]","Plasma concentration of PB (phenylbutyrate) [1, 2] [µM]"
"O=C(Cc1ccccc1)OC[C@H]1O[C@@H](n2ccc(=O)[nH]c2=O)[C@H](O)[C@@H]1O [PAU, 5′-O-Phenylacetyluridine]",elevated plasma uridine and uracil better,"10,068 ± 2,583 pg/ml","7,034 ± 1,236 + pg/ml",significant anti-inflammatory effect,–,–
sodium phenylbutyrate [NaPB],–,–,–,–,401,26
